Measurements reported in the supplement of paper PMC5579334.
± gives the standard deviation of the averaged measurements.

How the values were obtained:
HS-PSS [1] = assay: drug sensitivity score (DSS, CellTiter-Glo viability, 72 h) (DSS (dimensionless)); higher = more sensitive; extreme values may be limits of the assay
Method in brief: (§1)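 MPNST cell lines and primary human Schwann cells (750–1000 cells per well) went into 384-well plates preprinted with each compound at five concentrations in 10-fold steps. Plates were incubated 72 h at 37 °C, 5% CO2. Viability was read as CellTiter-Glo ATP luminescence, scaled between vehicle and positive-control wells, with duplicates averaged where present. Percent inhibition is at the top concentration; drug sensitivity score and relative IC50 (censored at top concentration) come from four-parameter logistic fits.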

HS-Sch-2 [2] = assay: as above
Method in brief: as §1

[3] = system: HSC1 (primary human Schwann cells); assay: as above
Method in brief: as §1

[4] = system: HSC2 (primary human Schwann cells); assay: as above
Method in brief: as §1

S1507-2 [5] = assay: as above
Method in brief: as §1

S462 [6] = assay: as above
Method in brief: as §1

ST8814 [7] = assay: as above
Method in brief: as §1

STS26T [8] = assay: as above
Method in brief: as §1

YST-1 [9] = assay: as above
Method in brief: as §1

HS-PSS [10] = assay: drug sensitivity score (DSS, CellTox-Green cytotoxicity, 72 h) (DSS (dimensionless)); higher = more cytotoxic; extreme values may be limits of the assay
Method in brief: (§2)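 MPNST cell lines and primary human Schwann cells were incubated 72 h at 37 °C in 384-well plates holding five 10-fold compound dilutions. CellTox-Green was added before seeding at a final 1:1000 dilution and reported fluorescence from DNA released by disrupted cells. Signals were scaled to vehicle and positive-control wells, and cultures failing plate quality control were dropped. Drug sensitivity score and relative IC50 come from four-parameter logistic fits, with IC50 censored at the top concentration.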

[11] = system: HSC1 (primary human Schwann cells); assay: as above
Method in brief: as §2

[12] = system: HSC2 (primary human Schwann cells); assay: as above
Method in brief: as §2

S1507-2 [13] = assay: as above
Method in brief: as §2

ST8814 [14] = assay: as above
Method in brief: as §2

STS26T [15] = assay: as above
Method in brief: as §2

HS-PSS [16] = assay: % inhibition of CellTiter-Glo viability at highest tested concentration (72 h), relative to DMSO and benzethonium chloride controls; higher = more inhibition
Method in brief: as §1

HS-Sch-2 [17] = assay: as above
Method in brief: as §1

[18] = system: HSC1 (primary human Schwann cells); assay: as above
Method in brief: as §1

[19] = system: HSC2 (primary human Schwann cells); assay: as above
Method in brief: as §1

S1507-2 [20] = assay: as above
Method in brief: as §1

S462 [21] = assay: as above
Method in brief: as §1

ST8814 [22] = assay: as above
Method in brief: as §1

STS26T [23] = assay: as above
Method in brief: as §1

YST-1 [24] = assay: as above
Method in brief: as §1

Compound	drug sensitivity score (HS-PSS [1])	drug sensitivity score (HS-Sch-2 [2])	drug sensitivity score [3]	drug sensitivity score [4]	drug sensitivity score (S1507-2 [5])	drug sensitivity score (S462 [6])	drug sensitivity score (ST8814 [7])	drug sensitivity score (STS26T [8])	drug sensitivity score (YST-1 [9])	drug sensitivity score (HS-PSS [10])	drug sensitivity score [11]	drug sensitivity score [12]	drug sensitivity score (S1507-2 [13])	drug sensitivity score (ST8814 [14])	drug sensitivity score (STS26T [15])	% inhibition (HS-PSS [16]) [%]	% inhibition (HS-Sch-2 [17]) [%]	% inhibition [18] [%]	% inhibition [19] [%]	% inhibition (S1507-2 [20]) [%]	% inhibition (S462 [21]) [%]	% inhibition (ST8814 [22]) [%]	% inhibition (STS26T [23]) [%]	% inhibition (YST-1 [24]) [%]
Cc1ccc(NC(=O)c2ccc(CN3CCN(C)CC3)cc2)cc1Nc1nccc(-c2cccnc2)n1 [Imatinib] (max concentration tested 10000 nM)	4.08	4.96	0	0	3.9 ± 0.28	0.251 ± 0.2	1.36	0.675	4.29	0.1	0	0	0.237 ± 0.34	1.72	0	58.8	89.5	9.96	8.82	49.5 ± 1.2	16.7 ± 2.7	33.4	23.5	53.8
CC[C@@]1(O)C(=O)OCc2c1cc1n(c2=O)Cc2cc3c(CN(C)C)c(O)ccc3nc2-1 [Topotecan] (max concentration tested 10000 nM)	14.6	21.7	19.6	22	18.9 ± 2.7	27.08 ± 0.12	27.2	18.3	26.3	11.1	27.9	18.4	16.1 ± 2.5	32.1	15.6	87.1	101	91.1	93.5	92.99 ± 0.57	96 ± 1.4	93.6	92.2	99.7
Nc1ccccc1NC(=O)c1ccc(CNc2nccc(-c3cccnc3)n2)cc1 [Mocetinostat] (max concentration tested 10000 nM)	6.61	9.89	9.63	10.5	8.06 ± 0.65	15.4 ± 0.54	8.59	8.68	15	4.26	4.7	6.39	5.36 ± 2.5	5.01	6.23	88	101	83.9	87.2	95.338 ± 0.088	94.19 ± 0.4	93.5	87.5	100
Cc1nc(C(=O)NCC(=O)O)c(O)c2ccc(Oc3ccccc3)cc12 [FG-4592] (max concentration tested 10000 nM)	5.17	5.13	0.0901	0.0248	0	0	0	0	0	0	0	0	0	0	0	49	74.7	13.3	12.3	-0.77 ± 1.2	-7 ± 5.2	7.03	0.0946	-7.68
FC(F)c1nc2ccccc2n1-c1nc(N2CCOCC2)nc(N2CCOCC2)n1 [ZSTK474] (max concentration tested 10000 nM)	3.54	4.18	8.75	9.9	13.5 ± 2.1	8 ± 0.68	8.94	14.6	15.1	0	0	0.497	0.69 ± 0.011	0	0	30.6	38.2	75.7	77.2	76.7 ± 9	59.4 ± 5	69.7	80	81.3
COc1cc2nccc(Oc3ccc(NC(=O)C4(C(=O)Nc5ccc(F)cc5)CC4)cc3)c2cc1OC [Cabozantinib] (max concentration tested 1000 nM)	1.89	0.13	0.225	0	4.78 ± 0.14	0.552 ± 0.78	2.2	0.238	0	0	0	0	0	0	0	23	10.9	13.2	8.9	27.7 ± 7.5	14 ± 4.9	21.3	13.4	0.14
CO[C@H](C(=O)[C@@H](O)[C@@H](C)O)[C@@H]1Cc2cc3cc(O[C@H]4C[C@@H](O[C@H]5C[C@@H](O)[C@H](O)[C@@H](C)O5)[C@@H](O)[C@@H](C)O4)c(C)c(O)c3c(O)c2C(=O)[C@H]1O[C@H]1C[C@@H](O[C@H]2C[C@@H](O[C@H]3C[C@](C)(O)[C@H](O)[C@@H](C)O3)[C@H](O)[C@@H](C)O2)[C@H](O)[C@@H](C)O1 [Plicamycin] (max concentration tested 10000 nM)	9.51	12.5	24.4	24.6	22.5 ± 0.9	24.32 ± 0.091	25.7	27	14.8	2.63	10.6	12.6	10.4 ± 4.4	0	25.9	96.8	102	83.7	87	87 ± 2.5	97.26 ± 0.26	82.8	95.8	101
CCN(CCO)CCCOc1ccc2c(Nc3cc(CC(=O)Nc4cccc(F)c4)[nH]n3)ncnc2c1 [AZD1152-HQPA] (max concentration tested 1000 nM)	0.81	0	7.19	8.05	3.8464 ± 7.1e-05	8.6 ± 0.56	4.68	4.07	11.2	0	0	0.941	0	4.15	3.61	9.86	0.66	34.7	39.6	37.8 ± 7.3	35.8 ± 1.1	51.2	41.2	40.6
